5 compounds from patent publication US4303640A, “Oil-in-water organophosphorus insecticidal emulsion” (priority 1979, dated 1981) can be followed below.

Series [1] is described as follows: size of emulsified particles of the active ingredient (microscope). It counts as physicochemical. As to conditions: oil-in-water emulsion, as prepared. The method, then:
A brief description of the method of producing the oil-in-water insecticidal emulsion of this invention will be given below. First, an insecticidally active liquid ingredient of the organophosphorus compound is added to a 2 to 20 wt% aqueous solution of polyvinyl alcohol or gum arabic, and a conventonal stirrer such as a T.K. Homomixer (a homogenizer manufactured by Tokushu Kika Kogyo Co., Ltd.) or a Shinagawa All-Purpose Mixer (a mixer manufactured by San-Ei-Seisakusho, Ltd.) is used to disperse the particles of the active ingredient (A.I.), generally at ambient temperature or, if necessary, at an elevated temperature (about 40° to 80° C.). The size of the emulsified particles of the active ingredient can be varied wihtin the range of from about 1 to 200μ depending upon the stirring force or the content of polyvinyl alcohol or gum arabic. A microscope is used to check the size of the emulsified particles of the active ingredient. Finally, for the purpose of preventing settling of the emulsified particles and improving the dispersion stability, an aqueous solution of a thickener is added to the emulsion in a suitable amount. The resulting oil-in-water insecticidal emulsion remains stable for an extended period. […]

Series [2] in a line: physchem. As to conditions: water.

≈ marks a conversion by molar mass, not a printed value.

As for `COP(=S)(OC)Oc1ccc(C#N)cc1` [Compound (3), O,O-dimethyl O-(4-cyanophenyl)phosphorothioate], the “Particle Size of emulsified active ingredient” value in series [1] was in the range of 1 to 50 μ. Moreover, in series [2], the concentration in solution (solubility) came to 28 µg/mL (≈ 115 µM).

In the case of `COP(=S)(OC)Oc1ccc([N+](=O)[O-])c(C)c1` [Compound (1), O,O-dimethyl O-(3-methyl-4-nitrophenyl)phosphorothioate], the “Particle Size of emulsified active ingredient” value in series [1] was 1 to 30 μ. The compound further gave a solubility in series [2] of 5 µg/mL (≈ 18 µM).

For `COP(=O)(Cc1cccc(C#N)c1)OC`, the “water-solubility at 10° C.” value is on record as “ca. 6,000 ppm”. The solubility in series [2] was approximately 6000 µg/mL (≈ 26600 µM).

`CCOC(=O)CC(SP(=S)(OC)OC)C(=O)OCC` (stereo not drawn) [Compound (2), O,O-dimethyl S-[1,2-di-(ethoxycarbonyl)ethyl]-phosphorodithioate]: the solubility in series [2] was determined as 145 µg/mL (≈ 439 µM).

Regarding `CCOC(=O)C(SP(=S)(OC)OC)c1ccccc1` (stereo not drawn) [Compound (4), O,O-dimethyl S-[α-(ethoxycarbonyl)benzyl]-phosphorodithioate], the concentration in solution in series [2] (solubility) came to 4 µg/mL (≈ 12.5 µM).
